Laboratory results taken from US6645983B1, “Pharmaceutical compositions comprising 4-quinolones for treating cancers” (Laboratoire L. Lafon, priority 1999, dated 2003).

Legend:
[1] = tested on: SW1088; test: MTT test, cytotoxic activity on non-clonogenic cell lines; format: cell-based; details: Homo sapiens, 10^−5 M, 72 hours of incubation, control condition = 100%, mean value, read-out: mean optical density as percentage of control, SW1088
Procedure: (§1) The principle of the MTT test is based on the mitochondrial reduction, by the metabolically active live cells, of the yellow-colored product MTT (3-(4,5-dimethylthiazol-2-yl)-2,5-diphenyltetrazolium bromide) to a blue-colored product, formazan. The amount of formazan thus obtained is directly proportional to the amount of live cells present in the culture well(s). This amount of formazan is measured by spectrophotometry.
(§2) The cell lines are maintained as a monolayer culture at 37° C. in stoppered culture dishes containing MEM 25 MM HEPES (Minimum Essential Medium) base medium. This medium is suited to the growth of a range of various mammalian diploid or primary cells. This medium is then supplemented with:
(§3) The 12 human cancer cell lines which were used were obtained from the American Type Culture Collection (ATCC, Rockville, Md., USA). These 12 cell lines are:
SW1088 (code ATCC: HTB-12) which is an astro-cytoma,
(§4) Experimentally, 100 μl of a cell suspension containing 20 000 to 50 000 (depending on the cell type used) cells/ml of culture medium are inoculated -in 96-well flat-bottomed multi-well plates and are left to stand in an incubator at 37° C., 5% CO2 and 70% humidity. After an incubation time of 24 hours, the culture medium is replaced with 100 μl of fresh medium containing either the various test compounds—at concentrations varying from 10^−5 to 10^−10 M—or the solvent having served for dissolving the products to be tested (control condition). […] The microplates are thus incubated for 3 hours at 37° C., then centrifuged for 10 minutes at 400 g. The yellowish solution of MTT is removed and the blue formazan crystals formed in the cell region are dissolved in 100 μl or DMSO. The microplates are then shaken for 5 minutes. […] Software incorporated in the spectrophotometer calculates the average optical density values and the standard deviation (SD) and standard error of mean (SEM) values.

[2] = tested on: T24; test: as above; format: cell-based; details: Homo sapiens, T-24; 10^−5 M, 72 hours of incubation, control condition = 100%, mean value; read-out: mean optical density as percentage of control, T24
Procedure: as §1, §2, §3
(§5) J82 (code ATCC: HTB-1) and T24 (code ATCC: HTB-4) which are two bladder cancers,
as §4

[3] = tested on: J82; test: as above; format: cell-based; details: Homo sapiens, 10^−5 M, 72 hours of incubation, control condition = 100%, mean value, read-out: mean optical density as percentage of control, J82
Procedure: as §1, §2, §3, §5, §4

[4] = tested on: U-87MG; test: as above; format: cell-based; details: Homo sapiens, U-87 MG; 10^−5 M, 72 hours of incubation, control condition = 100%, mean value; read-out: mean optical density as percentage of control, U-87MG
Procedure: as §1, §2, §3, §4

[5] = tested on: LoVo; test: as above; format: cell-based; details: Homo sapiens, 10^−5 M, 72 hours of incubation, control condition = 100%, mean value, read-out: mean optical density as percentage of control, LoVo
Procedure: as §1, §2, §3, §4

[6] = tested on: T-47D; test: as above; format: cell-based; details: Homo sapiens, T47D; 10^−5 M, 72 hours of incubation, control condition = 100%, mean value; read-out: mean optical density as percentage of control, T-47D
Procedure: as §1, §2, §3, §4

[7] = tested on: PC-3; test: as above; format: cell-based; details: Homo sapiens, 10^−5 M, 72 hours of incubation, control condition = 100%, mean value, read-out: mean optical density as percentage of control, PC-3
Procedure: as §1, §2, §3, §4

[8] = tested on: HCT-15; test: as above; format: cell-based; details: Homo sapiens, 10^−5 M, 72 hours of incubation, control condition = 100%, mean value, read-out: mean optical density as percentage of control, HCT-16
Procedure: as §1, §2, §3, §4

[9] = tested on: A549; test: as above; format: cell-based; details: Homo sapiens, 10^−5 M, 72 hours of incubation, control condition = 100%, mean value, read-out: mean optical density as percentage of control, A549
Procedure: as §1, §2, §3, §4

[10] = tested on: A-427; test: as above; format: cell-based; details: Homo sapiens, 10^−5 M, 72 hours of incubation, control condition = 100%, mean value, read-out: mean optical density as percentage of control, A-427
Procedure: as §1, §2, §3, §4

[11] = tested on: MCF7; test: as above; format: cell-based; details: Homo sapiens, 10^−5 M, 72 hours of incubation, control condition = 100%, mean value, read-out: mean optical density as percentage of control, MCF7
Procedure: as §1, §2, §3, §4

[12] = tested on: U-373MG; test: as above; format: cell-based; details: Homo sapiens, U373 MG; 10^−5 M, 72 hours of incubation, control condition = 100%, mean value; read-out: mean optical density as percentage of control, U-373MG
Procedure: as §1, §2, §3, §4

[13] = Determination of the maximum tolerated dose (MTD); details: B6D2F1/Jico, mouse, in vivo, ip; single intraperitoneal administration, doses 2.5 to 160 mg/kg, survival over 14 days
Procedure: The evaluation of the maximum tolerated dose was performed on 4- to 6-week-old B6D2F1/Jico mice. The compounds were administered intraperitoneally at increasing doses ranging from 2.5 to 160 mg/kg. The value of the MTD (expressed in mg/kg) is determined from the observation of the survival rate of the animals over a 14-day period after a single administration of the product under consideration. The change in weight of the animals is also monitored during this period. When the MTD value is greater than 160 mg/kg, the MTD value is considered as being 160 mg/kg by default.

Row | Compound | viability at 10 µM [1] [%] | viability at 10 µM [2] [%] | viability at 10 µM [3] [%] | viability at 10 µM [4] [%] | viability at 10 µM [5] [%] | viability at 10 µM [6] [%] | viability at 10 µM [7] [%] | viability at 10 µM [8] [%] | viability at 10 µM [9] [%] | viability at 10 µM [10] [%] | viability at 10 µM [11] [%] | viability at 10 µM [12] [%] | MTD at 14 day [13] [mg/kg]
1 | COc1ccc(-c2c[nH]c3cc(OC)c(OC)cc3c2=O)cc1 [CRL8354, 6,7-Dimethoxy-3-(4-methoxyphenyl)-1,4-dihydro-4-quinolinone] | 93.2 | 91.4 | 98.2 | 102 | 98.4 | 104 | 93.7 | 95.9 | 98.5 | 97.2 | 102 | 97.7 | > 160
2 | COc1cc2[nH]cc(-c3ccccc3)c(=O)c2cc1OC [CRL8355, 6,7-Dimethoxy-3-phenyl-1,4-dihydro-4-quinolinone] | 97.5 | 89.4 | 94.9 | 94.4 | 98.7 | 98.5 | 100 | 99.5 | 98.6 | 103 | 94.8 | 97.7 | > 160
3 | COc1ccc(-c2cn(CCCN(C)C)c3cc(OC)cc(OC)c3c2=O)cc1 [CRL8357, N-[3-(Dimethylamino)propyl]-5,7-dimethoxy-3-(4-methoxyphenyl)-1,4-dihydro-4-quinolinone] | 69.6 | 99 | 84.7 | 84.4 | 97.9 | 94.1 | 85.6 | 79.5 | 73.3 | 59.5 | 95.8 | 96 | 80
4 | COc1ccc(-c2c[nH]c3cc(OC)ccc3c2=O)cc1 [CRL8358, 7-Methoxy-3-(4-methoxyphenyl)-1,4-dihydro-4-quinolinone] | 98.3 | 90.7 | 92.7 | 80.1 | 38 | 92.1 | 89.1 | 89.1 | 55 | 34.5 | 84.1 | 41 | > 160
5 | COc1ccc2c(=O)c(-c3ccccc3)c[nH]c2c1 [CRL8359, 7-Methoxy-3-phenyl-1,4-dihydro-4-quinolinone] | 140 | 34.7 | 52.2 | 114 | 30.9 | 41.2 | 123 | 59.9 | 73.9 | 25.8 | 65.8 | 41.2 | > 160
6 | CCOC(=O)Cn1cc(-c2ccc(OC)cc2)c(=O)c2c(OC)cc(OC)cc21 [CRL8360, Ethyl 2-[5,7-dimethoxy-3-(4-methoxyphenyl)-4-oxo-1,4-dihydro-1-quinolinyl]acetate] | 75.1 | 87.5 | 81.2 | 97.6 | 98.6 | 82.1 | 81.5 | 91.8 | 85.6 | 71.3 | 95.3 | 88 | > 160
7 | COc1ccc(-c2cn(C)c3c(OC)ccc(OC)c3c2=O)cc1 [CRL8371] | 40.8 | 52.2 | 76.3 | 58.7 | 45.6 | 49.3 | 54.2 | 25.2 | 42.9 | 30.8 | 45.6 | 42.8 | 40
8 | COc1ccc(-c2cn(CC#N)c3cc(OC)cc(OC)c3c2=O)cc1 [CRL8372, [5,7-Dimethoxy-3-(4-methoxyphenyl)-4-oxo-1,4-dihydro-1-quinolinyl]acetonitrile] | 98.1 | 81.2 | 93 | 92.9 | 83.9 | 65.7 | 110 | 84.3 | 93.4 | 93.9 | 96.6 | 94.8 | > 160
9 | COc1ccc(-c2cn(C)c3cc(OC)cc(O)c3c2=O)cc1 [CRL8377, 5-Hydroxy-7-methoxy-3-(4-methoxyphenyl)-1-methyl-1,4-dihydro-4-quinolinone] | 99.8 | 85 | 98.7 | 49.5 | 85 | 66.9 | 87.4 | 86.6 | 67 | 26.5 | 104 | 56.7 | > 160
10 | COc1ccc(-c2cn(C)c3ccc(OC)cc3c2=O)cc1 [CRL8378, 6-Methoxy-3-(4-methoxyphenyl)-1-methyl-1,4-dihydro-4-quinolinone] | 108 | 89.2 | 99.6 | 73 | 107 | 110 | 100 | 105 | 91 | 72.3 | 93.5 | 98.1 | > 160
11 | COc1ccc2c(c1)c(=O)c(-c1ccccc1)cn2C [CRL8379, 6-Methoxy-1-methyl-3-phenyl-1,4-dihydro-4-quinolinone] | 98.3 | 102 | 101 | 95.3 | 102 | 99.3 | 99.2 | 106 | 94 | 94.2 | 91.6 | 113 | > 160
